Experimental data taken from patent EP1247803A2, “Indolinone compounds suitable for modulation of protein kinases” (Sugen, Inc., priority 1996, dated 1998).

Legend:
PDGF-R = PDGF-R (Homo sapiens, UniProt P09619); assay: PDGF-R ELISA; format: cell-based
Text: A PDGF-R ELISA is described in International Patent Publication No. WO 96/40116, published December 19, 1996 by Tang et al.

EGFR = molecular target: T1, EGFR (Homo sapiens, UniProt P00533); assay: EGFR ELISA assay (in vitro kinase activity, EGFR captured from A431 cell lysate); format: biochemical; parameters: concentration or dose not given beside the values
T1 construct: Add 7 ug A431 cell lysate per well (EGFR source); endogenous in cells; host or cells: A431
Method in brief: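 EGFR from A431 lysate was captured on plates coated with anti-EGFR antibody. Compounds were added 30 min before a 5 min phosphorylation with 3 µM ATP/5 mM MnCl2, which was stopped with 20 mM EDTA. Phosphotyrosine was detected with rabbit anti-phosphotyrosine, then a peroxidase-conjugated secondary and ABTS/H2O2, read at 410 nm.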

MET = MET biochemical kinase assay; parameters: species or system human; concentration or dose not given beside the values
Method in brief: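 Plates coated with anti-rabbit Fc bind a rabbit anti-MET antibody that captures receptor from cell lysates; unbound protein is washed off before compound and ATP-containing kinase buffer go in.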

T1 sequence (P00533 25-1210): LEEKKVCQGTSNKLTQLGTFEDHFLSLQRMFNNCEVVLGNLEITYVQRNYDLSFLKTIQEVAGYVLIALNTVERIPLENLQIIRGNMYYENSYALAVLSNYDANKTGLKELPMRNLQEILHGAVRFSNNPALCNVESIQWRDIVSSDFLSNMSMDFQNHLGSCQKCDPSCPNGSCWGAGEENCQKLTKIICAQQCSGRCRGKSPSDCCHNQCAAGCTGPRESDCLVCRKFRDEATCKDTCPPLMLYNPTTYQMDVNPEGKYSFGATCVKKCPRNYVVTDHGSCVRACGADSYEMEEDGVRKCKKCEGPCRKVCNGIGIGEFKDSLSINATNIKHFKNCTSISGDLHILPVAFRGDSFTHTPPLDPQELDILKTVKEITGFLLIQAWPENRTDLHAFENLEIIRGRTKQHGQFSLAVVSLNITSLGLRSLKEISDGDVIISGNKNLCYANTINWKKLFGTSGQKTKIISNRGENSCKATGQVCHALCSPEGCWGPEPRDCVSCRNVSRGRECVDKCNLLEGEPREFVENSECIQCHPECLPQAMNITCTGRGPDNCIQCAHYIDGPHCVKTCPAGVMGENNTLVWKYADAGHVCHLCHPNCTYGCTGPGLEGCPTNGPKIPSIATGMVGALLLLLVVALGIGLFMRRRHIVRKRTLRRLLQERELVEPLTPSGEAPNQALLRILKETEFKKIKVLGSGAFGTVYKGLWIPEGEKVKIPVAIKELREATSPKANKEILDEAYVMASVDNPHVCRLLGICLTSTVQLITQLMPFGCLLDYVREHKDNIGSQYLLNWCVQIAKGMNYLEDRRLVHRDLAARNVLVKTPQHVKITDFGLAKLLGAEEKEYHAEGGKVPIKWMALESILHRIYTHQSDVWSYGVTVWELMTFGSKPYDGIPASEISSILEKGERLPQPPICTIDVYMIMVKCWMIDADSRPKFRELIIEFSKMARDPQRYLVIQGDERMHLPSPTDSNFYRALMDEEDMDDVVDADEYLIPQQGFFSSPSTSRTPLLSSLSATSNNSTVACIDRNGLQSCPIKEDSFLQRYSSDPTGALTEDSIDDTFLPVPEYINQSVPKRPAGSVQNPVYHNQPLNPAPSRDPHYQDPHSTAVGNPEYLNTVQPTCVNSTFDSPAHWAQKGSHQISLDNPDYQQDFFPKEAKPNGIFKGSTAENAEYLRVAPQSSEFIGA
Sequence of PDGF-R (P09619 33-1106, species assumed): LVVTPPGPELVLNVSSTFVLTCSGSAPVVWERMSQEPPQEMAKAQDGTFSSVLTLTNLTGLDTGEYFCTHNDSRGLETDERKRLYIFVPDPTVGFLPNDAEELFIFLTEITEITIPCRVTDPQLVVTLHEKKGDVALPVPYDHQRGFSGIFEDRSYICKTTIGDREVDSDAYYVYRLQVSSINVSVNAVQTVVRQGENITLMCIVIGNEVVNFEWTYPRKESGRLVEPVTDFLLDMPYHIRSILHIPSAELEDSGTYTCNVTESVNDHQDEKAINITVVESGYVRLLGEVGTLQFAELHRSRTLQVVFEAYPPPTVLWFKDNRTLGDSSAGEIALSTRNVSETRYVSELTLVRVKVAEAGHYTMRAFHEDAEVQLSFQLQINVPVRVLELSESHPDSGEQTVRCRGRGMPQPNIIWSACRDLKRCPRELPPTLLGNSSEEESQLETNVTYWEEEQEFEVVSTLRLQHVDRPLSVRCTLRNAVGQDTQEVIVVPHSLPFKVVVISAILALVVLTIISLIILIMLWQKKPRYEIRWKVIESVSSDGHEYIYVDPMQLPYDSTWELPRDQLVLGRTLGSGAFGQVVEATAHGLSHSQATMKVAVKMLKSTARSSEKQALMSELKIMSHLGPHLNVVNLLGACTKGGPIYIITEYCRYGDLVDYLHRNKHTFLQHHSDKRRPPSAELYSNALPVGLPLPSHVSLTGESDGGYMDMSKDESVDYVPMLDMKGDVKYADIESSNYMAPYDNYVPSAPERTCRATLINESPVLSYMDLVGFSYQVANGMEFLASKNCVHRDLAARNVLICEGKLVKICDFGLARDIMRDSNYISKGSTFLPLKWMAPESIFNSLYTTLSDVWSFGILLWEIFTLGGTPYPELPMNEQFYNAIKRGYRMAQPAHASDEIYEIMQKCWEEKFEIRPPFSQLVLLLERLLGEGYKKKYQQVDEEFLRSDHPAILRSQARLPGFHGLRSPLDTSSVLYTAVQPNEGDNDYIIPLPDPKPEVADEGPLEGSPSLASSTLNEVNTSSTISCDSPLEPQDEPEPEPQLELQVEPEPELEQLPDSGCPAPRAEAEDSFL

Structure (SMILES) | PDGF Kinase %Inhibition (PDGF-R) [%] | Biochem EGFR %Inhibition (EGFR) [%] | Met Kinase % Inhibition (MET) [%]
O=C1Nc2ccc(S(=O)(=O)N3CCOCC3)cc2C1=Cc1c[nH]cn1 [10725/F11] | 20.3 | 20.8 | 25.7
O=C1Nc2ccc(CCCl)cc2C1=Cc1sccc1Br [10725/G02] | -11.8 | -20.5 | 30.8
COc1ccc(Br)c(C=C2C(=O)Nc3ccc(CCCl)cc32)c1O [10725/G03] | -6.5 | -2.5 | 58.6
Cc1ccc(C=C2C(=O)Nc3ccc(CCCl)cc32)o1 [10725/G04] | -8.9 | -12.3 | 47.1
Cc1cc(C=C2C(=O)Nc3ccc(CCCl)cc32)[nH]n1 [10725/G05] | 7.4 | 68.7 | 15.6
COc1cc(C)cc(O)c1C=C1C(=O)Nc2ccc(CCCl)cc21 [10725/G06] | 27.5 | -19.9 | 35.8
O=CN1CCN(c2ccc(C=C3C(=O)Nc4ccc(CCCl)cc43)cc2)CC1 [10725/G07] | 23.7 | -25.8 | 39.7
O=C1Nc2ccc(CCCl)cc2C1=Cc1ccc(N2CCOCC2)cc1 [10725/G08] | 8.3 | -13.7 | 47.3
COC(=O)Cc1c(Cl)[nH]c(C=C2C(=O)Nc3ccc(CCCl)cc32)c1C(=O)OC [10725/G09] | 43.8 | 6.5 | 4.7
O=C1Nc2ccc(CCCl)cc2C1=Cc1c(Br)cnn1-c1ccc(Cl)cc1 [10725/G10] | 44.7 | 17.8 | 27.7
O=C1Nc2ccc(CCCl)cc2C1=Cc1c[nH]cn1 [10725/G11] | 22.2 | -32.4 | 25.7
CCOC(=O)c1[nH]c(C=C2C(=O)Nc3c(Br)cc(Br)cc32)c(C(=O)OC)c1C [10726/A03] | 4.3 | -12.5 | 70.1
Cc1cc(C=C2C(=O)Nc3c(Br)cc(Br)cc32)cc(C(C)(C)C)c1O [10726/A04] | 44.2 | 40.8 | 85.7
O=C1Nc2c(Br)cc(Br)cc2C1=Cc1ccc(Br)o1 [10726/A05] | 22.1 | -28.4 | 75.2
Cc1cn(C)cc1C=C1C(=O)Nc2c(Br)cc(Br)cc21 [10726/A06] | 22.1 | 0.2 | 54.7
O=C1Nc2c(Br)cc(Br)cc2C1=Cc1cc(O)c2c(c1O)CCCC2 [10726/A07] | -36.8 | 88.7 | 101.4
O=C1Nc2ccc(F)cc2C1=C1C(=O)Nc2c(Br)cc(Br)cc21 [10726/A08] | 10.7 | -28.4 | 63.1

Structure (SMILES) | PDGF Kinase %Inhibition (PDGF-R) [%] | Biochem EGFR %Inhibition (EGFR) [%] | Met Kinase % Inhibition (MET) [%]
O=C1Nc2ccccc2C1=C1C(=O)Nc2c(Br)cc(Br)cc21 [10726/A09] | 16.4 | -6.3 | 70.8
CCc1ccc(C=C2C(=O)Nc3c(Br)cc(Br)cc32)s1 [10726/A10] | 8.1 | 26.5 | 58.9
COc1ccc(C=C2C(=O)Nc3c(Br)cc(Br)cc32)cc1 [10726/A11] | 23.3 | 6.2 | 70.8
CCOC(=O)c1[nH]c(C=C2C(=O)Nc3ccc(I)cc32)c(C(=O)OC)c1C [10726/B03] | 16.4 | 3.5 | 81.1
Cc1cc(C=C2C(=O)Nc3ccc(I)cc32)cc(C(C)(C)C)c1O [10726/B04] | 39.1 | 71.1 | 78.9
O=C1Nc2ccc(I)cc2C1=Cc1ccc(Br)o1 [10726/B05] | 27.1 | 49.0 | 96.8
Cc1cn(C)cc1C=C1C(=O)Nc2ccc(I)cc21 [10726/B06] | 34.1 | 6.6 | 76.1
O=C1Nc2ccc(I)cc2C1=Cc1cc(O)c2c(c1O)CCCC2 [10726/B07] | -59.5 | 72.4 | 98.5
O=C1Nc2ccc(F)cc2C1=C1C(=O)Nc2ccc(I)cc21 [10726/B08] | 24.6 | 23.6 | 60.2
CCc1ccc(C=C2C(=O)Nc3ccc(I)cc32)s1 [10726/B10] | 6.2 | 40.8 | 58.5
COc1ccc(C=C2C(=O)Nc3ccc(I)cc32)cc1 [10726/B11] | 23.3 | 39.4 | 64.4
CCOC(=O)c1[nH]c(C=C2C(=O)Nc3ccc(Br)c(C)c32)c(C(=O)OC)c1C [10726/C03] | 28.4 | 29.8 | 38.9
Cc1cc(C=C2C(=O)Nc3ccc(Br)c(C)c32)cc(C(C)(C)C)c1O [10726/C04] | 36.6 | 58.4 | 91.7
Cc1c(Br)ccc2c1C(=Cc1ccc(Br)o1)C(=O)N2 [10726/C05] | 25.2 | 16.7 | 58.0
Cc1cn(C)cc1C=C1C(=O)Nc2ccc(Br)c(C)c21 [10726/C06] | 36.0 | -0.9 | 42.6
Cc1c(Br)ccc2c1C(=Cc1cc(O)c3c(c1O)CCCC3)C(=O)N2 [10726/C07] | -67.7 | 40.8 | 84.9
